This note sets out measurements from patent US20130011462A1, “MELT EXTRUDED NICOTINE THIN STRIPS” (Novartis AG, priority 2009, published 2013).

Where two headings read alike, the source gives them in different places.

The procedure of series [1]:
During thermo-gravimetric analysis (TGA), the weight of a sample is measured very accurately as the sample is undergoing a temperature program (usually a gradual increase in temperature). Changes in the sample that result in weight differences will be detected, and can be correlated to temperature. This technique was used to investigate the onset temperatures of dehydration and degradation of the nicotine salt.
Table 4 details the temperature program for this study. The sample was heated from 30 to 950° C. under nitrogen (inert gas) or air.

The procedure of series [2]:
The sample weight was monitored for 20 minutes at probable extrusion temperatures of 50, 55 and 60° C. This duration is longer than expected process time for small batches including hold time in hoppers.
The source holds these as a separate data set.

For `CN1CCCC1c1cccnc1.O.O.O=C(O)C(O)C(O)C(=O)O` (centres unmarked) [Nicotine bitartrate dihydrate], in series [1] (Air purged sample), the “First Event Onset Temperature” value amounted to 73.93 °C and the “Second Event Onset Temperature” value was 190.23 °C. Also, in series [1] (Nitrogen purged sample), the “First Event Onset Temperature” value is 72.54 °C and the “Second Event Onset Temperature” value came out at 190.78 °C. In series [1] (scan 30 to 950 °C), the “first TGA event inflection” value is 82 °C; the “first TGA event onset” value was 73 °C; the “second TGA event inflection” value is 203 °C; the “weight loss, first TGA event” value is “about 4%”. Also, the “weight loss after isothermal hold” value in series [2] (20 minute hold at 50 °C) was found to be 0.497%. For the same compound, in series [2] (20 minute hold at 55 °C), the “weight loss after isothermal hold” value was 0.678%. The “weight loss after isothermal hold” value in series [2] (20 minute hold at 60 °C) is 1.147%.
